According to patent US10358436B2, “Kinase inhibitors and method of treating cancer” (University Health Network, priority 2010, dated 2019):
Structures can show the parent of a compound that is named as a salt.

Biological target: Aurora A (Homo sapiens (Human), UniProt O14965)
Experiment: Aurora A inhibition assay (Z-Lyte)
Type: biochemical

Sequence of Aurora A (O14965 whole entry): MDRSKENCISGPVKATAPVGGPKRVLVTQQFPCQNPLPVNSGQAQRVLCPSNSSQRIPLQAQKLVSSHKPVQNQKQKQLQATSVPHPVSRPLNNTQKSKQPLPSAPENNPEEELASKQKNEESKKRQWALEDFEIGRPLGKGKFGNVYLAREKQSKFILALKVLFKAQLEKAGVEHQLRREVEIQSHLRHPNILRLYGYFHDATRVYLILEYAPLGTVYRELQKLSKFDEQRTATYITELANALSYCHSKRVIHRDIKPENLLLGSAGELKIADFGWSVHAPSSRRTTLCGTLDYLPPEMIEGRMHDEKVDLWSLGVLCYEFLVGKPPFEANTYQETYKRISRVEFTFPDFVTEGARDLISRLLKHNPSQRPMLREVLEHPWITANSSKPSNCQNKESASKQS

Row | Compound | inhibition at 1 µM [%]
1 | CN(C)Cc1ccc(/C=C/c2n[nH]c3cc([C@@H]4C[C@@]45C(=O)N(C)c4ccccc45)ccc23)cc1 [Example A109, (1R,2S)-(E)-2-(3-(4-((dimethylamino)methyl)styryl)-1H-indazol-6-yl)-1′-methylspiro[cyclopropane-1,3′-indolin]-2′-one 2,2,2-trifluoroacetate] | > 50
2 | CN1CCN(c2ccc(/C=C/c3n[nH]c4cc([C@@H]5C[C@@]56C(=O)N(C)c5ccccc56)ccc34)cn2)CC1 [Example A110, (1R,2S)-1′-methyl-2-(3-((E)-2-(6-(4-methylpiperazin-1-yl)pyridin-3-yl)vinyl)-1H-indazol-6-yl)spiro[cyclopropane-1,3′-indolin]-2′-one bis(2,2,2-trifluoroacetate)] | > 50
3 | O=C1Nc2ccccc2[C@]12C[C@H]2c1ccc2c(/C=C/c3cc(F)c(CN4CCOCC4)c(F)c3)n[nH]c2c1 [Example A116, (1R,2S)-(E)-2-(3-(3,5-difluoro-4-(morpholinomethyl)styryl)-1H-indazol-6-yl)spiro[cyclopropane-1,3′-indolin]-2′-one 2,2,2-trifluoroacetate] | > 50
4 | COc1ccc2c(c1)[C@]1(C[C@H]1c1ccc3c(-c4ccc(C5CCN(C)CC5)cc4)n[nH]c3c1)C(=O)N2 [Example A123, (1R,2S)-5′-methoxy-2-(3-(4-(1-methylpiperidin-4-yl)phenyl)-1H-indazol-6-yl)spiro[cyclopropane-1,3′-indolin]-2′-one hydrochloride] | < 50
5 | COc1ccc2c(c1)[C@]1(C[C@H]1c1ccc3c(-c4ccc(N5C[C@@H](C)N[C@@H](C)C5)cc4)n[nH]c3c1)C(=O)N2 [Example A126, (1R,2S)-2-(3-(4-(cis-3,5-dimethylpiperazin-1-yl)phenyl)-1H-indazol-6-yl)-5′-methoxyspiro[cyclopropane-1,3′-indolin]-2′-one 2,2,2-trifluoroacetate] | < 50
6 | COc1ccc2c(c1)[C@]1(C[C@H]1c1ccc3c(-c4ccc(N5CC[C@@H](N(C)C)C5)cc4)n[nH]c3c1)C(=O)N2 [Example A127, (1R,2S)-2-(3-(4-((R)-3-(dimethylamino)pyrrolidin-1-yl)phenyl)-1H-indazol-6-yl)-5′-methoxyspiro[cyclopropane-1,3′-indolin]-2′-one 2,2,2-trifluoroacetate] | > 50
7 | COc1ccc2c(c1)[C@]1(C[C@H]1c1ccc3c(-c4ccc(N(C)CCN(C)C)cc4)n[nH]c3c1)C(=O)N2 [Example A129, (1R,2S)-2-(3-(4-((2-(dimethylamino)ethyl)(methyl)amino)phenyl)-1H-indazol-6-yl)-5′-methoxyspiro[cyclopropane-1,3′-indolin]-2′-one 2,2,2-trifluoroacetate] | < 50
8 | COc1ccc2c(c1)[C@]1(C[C@H]1c1ccc3c(/C=C/c4ccc(N5CCN(C)CC5)cc4)n[nH]c3c1)C(=O)N2 [Example A175, (1R,2S)-(E)-5′-methoxy-2-(3-(4-(4-methylpiperazin-1-yl)styryl)-1H-indazol-6-yl)spiro[cyclopropane-1,3′-indolin]-2′-one 2,2,2-trifluoroacetate] | < 50
9 | COc1ccc2c(c1)[C@]1(C[C@H]1c1ccc3c(/C=C/c4csc(CN5CCOCC5)c4)n[nH]c3c1)C(=O)N2 [Example A183, (1R,2S)-5′-methoxy-2-(3-((E)-2-(5-(morpholinomethyl)thiophen-3-yl)vinyl)-1H-indazol-6-yl)spiro[cyclopropane-1,3′-indolin]-2′-one 2,2,2-trifluoroacetate] | > 50

The next lines start with the values.

Row | inhibition at 1 µM [%] | Compound
10 | < 50 | COc1ccc2c(c1)[C@]1(C[C@H]1c1ccc3c(-c4ccc(OCCn5ccnc5)cc4)n[nH]c3c1)C(=O)N2 [Example A108, (1R,2S)-2-(3-(4-(2-(1H-imidazol-1-yl)ethoxy)phenyl)-1H-indazol-6-yl)-5′-methoxyspiro[cyclopropane-1,3′-indolin]-2′-one 2,2,2-trifluoroacetate]
11 | > 50 | COc1ccc2c(c1)[C@]1(C[C@H]1c1ccc3c(/C=C/c4ccncc4)n[nH]c3c1)C(=O)N2 [Example A111, (1R,2S)-5′-methoxy-2-(3-((E)-2-(pyridin-4-yl)vinyl)-1H-indazol-6-yl)spiro[cyclopropane-1,3′-indolin]-2′-one 2,2,2-trifluoroacetate]
12 | > 50 | COc1ccc2c(c1)[C@]1(C[C@H]1c1ccc3c(/C=C/c4ccc(CN5CC[C@@H](F)C5)cc4)n[nH]c3c1)C(=O)N2 [Example A112, (1R,2S)-(E)-2-(3-(4-(((R)-3-fluoropyrrolidin-1-yl)methyl)styryl)-1H-indazol-6-yl)-5′-methoxyspiro[cyclopropane-1,3′-indolin]-2′-one 2,2,2-trifluoroacetate]
13 | > 50 | O=C1Nc2ccccc2[C@]12C[C@H]2c1ccc2c(/C=C/c3ccc4c(c3)CNCCO4)n[nH]c2c1 [Example A113, (1R,2S)-2-(3-((E)-2-(2,3,4,5-tetrahydrobenzo[f][1,4]oxazepin-7-yl)vinyl)-1H-indazol-6-yl)spiro[cyclopropane-1,3′-indolin]-2′-one 2,2,2-trifluoroacetate]
14 | < 50 | CN1C(=O)[C@@]2(C[C@H]2c2ccc3c(/C=C/c4ccc(CN5CCCC5)cc4)n[nH]c3c2)c2ccccc21 [Example A115, (1R,2S)-(E)-1′-methyl-2-(3-(4-(pyrrolidin-1-ylmethyl)styryl)-1H-indazol-6-yl)spiro[cyclopropane-1,3′-indolin]-2′-one 2,2,2-trifluoroacetate]
15 | < 50 | COc1ccc2c(c1)[C@]1(C[C@H]1c1ccc3c(-c4ccc(N5CCC(N(C)C)CC5)cc4)n[nH]c3c1)C(=O)N2 [Example A120, (1R,2S)-2-(3-(4-(4-(dimethylamino)piperidin-1-yl)phenyl)-1H-indazol-6-yl)-5′-methoxyspiro[cyclopropane-1,3′-indolin]-2′-one 2,2,2-trifluoroacetate]
16 | < 50 | COc1ccc2c(c1)[C@]1(C[C@H]1c1ccc3c(-c4ccc(N5CCC(N6CCOCC6)CC5)cc4)n[nH]c3c1)C(=O)N2 [Example A121, (1R,2S)-5′-methoxy-2-(3-(4-(4-morpholinopiperidin-1-yl)phenyl)-1H-indazol-6-yl)spiro[cyclopropane-1,3′-indolin]-2′-one 2,2,2-trifluoroacetate]
17 | > 50 | COCCN1C(=O)[C@@]2(C[C@H]2c2ccc3c(/C=C/c4ccc(CN(C)C)cc4)n[nH]c3c2)c2ccccc21 [Example A131, (1R,2S)-(E)-2-(3-(4-((dimethylamino)methyl)styryl)-1H-indazol-6-yl)-1′-(2-methoxyethyl)spiro[cyclopropane-1,3′-indolin]-2′-one 2,2,2-trifluoroacetate]
18 | < 50 | CCN(CC)Cc1c(F)cc(/C=C/c2n[nH]c3cc([C@@H]4C[C@@]45C(=O)Nc4ccc(OC)cc45)ccc23)cc1F [Example A146, (1R,2S)-(E)-2-(3-(4-((diethylamino)methyl)-3,5-difluorostyryl)-1H-indazol-6-yl)-5′-methoxyspiro[cyclopropane-1,3′-indolin]-2′-one 2,2,2-trifluoroacetate]
19 | > 50 | Cc1ccc(/C=C/c2n[nH]c3cc([C@@H]4C[C@@]45C(=O)Nc4ccccc45)ccc23)cn1 [Example A150, (1R,2S)-2-(3-((E)-2-(6-methylpyridin-3-yl)vinyl)-1H-indazol-6-yl)spiro[cyclopropane-1,3′-indolin]-2′-one]
